The target in series [1] is T1, Escherichia coli DNA gyrase (Escherichia coli, UniProt P0AES4+P0AES6).
T1 construct: purchased Inspiralis (Norwich, UK)
Description: Gyrase Supercoiling High Throughput Plate assay (E. coli). It counts as biochemical. The conditions noted are these: mean of two to four independent measurements.

In series [2] the test system is methicillin-resistant Staphylococcus aureus (MRSA). Description: MIC broth microdilution, MRSA. It counts as cell-based. Conditions: 20 hours of incubation. The protocol:
(§1) Minimal inhibitory concentrations were determined by the broth microdilution method in 96-wells plate format following the Clinical and Laboratory Standards Institute (CLSI) guidelines given in “Methods for Dilution Antimicrobial Susceptibility Tests for Bacteria That Grow Aerobically, Approved Standard, 10th Edition, CLSI document M07-A10, Wayne, PA: Clinical and Laboratory Standards Institute, USA, 2015” and European Committee on Antimicrobial Susceptibility Testing (EUCAST) recommendations given in “The European Committee on Antimicrobial Susceptibility Testing, Breakpoint tables for interpretation of MICs and zone diameters, Version 5.0, 2015”. All exemplified compounds were tested on several Gram-positive (S. aureus, methicillin-resistant Staphylococcus aureus (MRSA), methicillin-resistant
(§2) Staphylococcus schleiferi subspecies coagulans, methicillin-resistant Staphylococcus pseudintermedius
(§3) (S-48, S-84, S-35, S-52, S-40 and S-51), Streptococcus agalactiae and Enterococcus faecalis) and Gram-negative bacteria (E. coli, Salmonella Alachua and Pseudomonas aeruginosa).
(§4) The MICs were visually determined as the lowest compound concentration inhibiting bacterial growth after 20 hours of incubation time. […] MIC values are represented in Table 2.
Background: Broth dilution looks for growth in wells or tubes with falling amounts of substance.

The test system of series [3] is methicillin-resistant Staphylococcus schleiferi subspecies coagulans. Description: MIC broth microdilution, MRSS. Format: cell-based. Conditions: 20 hours of incubation. The protocol:
as §1, §2, §3, §4

Series [4] deals with methicillin-resistant Staphylococcus pseudintermedius S-84. Description: MIC broth microdilution, MRSP S-84. It counts as cell-based. Conditions: 20 hours of incubation. Here is the method: as §1, §2, §3, §4
Series [5] relates to methicillin-resistant Staphylococcus pseudintermedius S-48. The series can be described thus: MIC broth microdilution, MRSP S-48. It counts as cell-based. Conditions: 20 hours of incubation. Here is the method: as §1, §2, §3, §4
In series [6] the test system is methicillin-resistant Staphylococcus pseudintermedius S-35. Description: MIC broth microdilution, MRSP S-35. Format: cell-based. Conditions: 20 hours of incubation. The protocol: as §1, §2, §3, §4
For series [7], the system named is methicillin-resistant Staphylococcus pseudintermedius S-52. Description: MIC broth microdilution, MRSP S-52. Conditions: 20 hours of incubation. Format: cell-based. Here is the method: as §1, §2, §3, §4
Series [8] has as its system methicillin-resistant Staphylococcus pseudintermedius S-40. Description: MIC broth microdilution, MRSP S-40. It counts as cell-based. The conditions noted are these: 20 hours of incubation. The protocol:
as §1, §2, §3, §4

Series [9] deals with methicillin-resistant Staphylococcus pseudintermedius S-51. The series can be described thus: MIC broth microdilution, MRSP S-51. Format: cell-based. Conditions: 20 hours of incubation. Here is the method: as §1, §2, §3, §4
Series [10] relates to E. faecalis DRK 057. The series can be described thus: MIC broth microdilution, E. faecalis. It counts as cell-based. Conditions: Enterococcus faecalis, DRK057, 20 hours of incubation. The protocol:
as §1, §2, §3, §4

For series [11], the system named is P. aeruginosa RDK 184. Description: MIC broth microdilution, P. aeruginosa. It counts as cell-based. The conditions noted are these: Pseudomonas aeruginosa, RDK184, 20 hours of incubation. The protocol: as §1, §2, §3, §4
For series [12], the system named is C. jejuni RDK-135. Description: MIC broth microdilution, C. jejuni. It counts as cell-based. The conditions noted are these: Campylobacter jejuni, RDK135, 20 hours of incubation. Here is the method: as §1, §4
The subject of series [13] is HUVEC (ATCC) cell line. The series can be described thus: Cytotoxicity, metabolic cell activity (CellTiter 96 AQueous One), HUVEC. The conditions noted are these: two independent experiments; for mean percentage of metabolic activity of treated cells, HUVEC 1 μM: compound 1 μM; for mean percentage of metabolic activity of treated cells, HUVEC 50 μM: compound 50 μM. Format: cell-based. The protocol:
(§5) Cytotoxicity was assessed in assay measuring metabolic cell activity performed on HepG2 (ATCC) and HUVEC (ATCC) cell lines according to the protocol of CellTiter 96® AQueous One Solution Cell Proliferation Assay 2018, Promega, USA, 2001. The method involved absorbance measurements after the treatment of cells with compounds at concentrations 1 μM and 50 μM.
(§6) The results are given as the mean percentage of metabolic activity of treated cells from two independent experiments and are represented in Table 3.

The test system of series [14] is HepG2 (ATCC) cell line. The series can be described thus: Cytotoxicity, metabolic cell activity (CellTiter 96 AQueous One), HepG2. Conditions: two independent experiments; for mean percentage of metabolic activity of treated cells, HepG2 1 μM: HepG2, compound 1 μM; for mean percentage of metabolic activity of treated cells, HepG2 50 μM: HepG2, compound 50 μM. It counts as cell-based. Here is the method: as §5, §6

Series [15] concerns the target Staphylococcus aureus DNA gyrase (Staphylococcus aureus, UniProt P0A0K8+P20831). The series can be described thus: biochemical.
Series [16] has as its system S. aureus. Description: MIC broth microdilution, S. aureus. Format: cell-based. Conditions: Staphylococcus aureus, 20 hours of incubation. Here is the method: as §1, §2, §3, §4

Molecules are shown by their SMILES. ≈ marks a conversion by molar mass, not a printed value. Where only a bound is given, the exact number is not on record here.

T1 sequence (P0AES4 whole entry, one chain of several): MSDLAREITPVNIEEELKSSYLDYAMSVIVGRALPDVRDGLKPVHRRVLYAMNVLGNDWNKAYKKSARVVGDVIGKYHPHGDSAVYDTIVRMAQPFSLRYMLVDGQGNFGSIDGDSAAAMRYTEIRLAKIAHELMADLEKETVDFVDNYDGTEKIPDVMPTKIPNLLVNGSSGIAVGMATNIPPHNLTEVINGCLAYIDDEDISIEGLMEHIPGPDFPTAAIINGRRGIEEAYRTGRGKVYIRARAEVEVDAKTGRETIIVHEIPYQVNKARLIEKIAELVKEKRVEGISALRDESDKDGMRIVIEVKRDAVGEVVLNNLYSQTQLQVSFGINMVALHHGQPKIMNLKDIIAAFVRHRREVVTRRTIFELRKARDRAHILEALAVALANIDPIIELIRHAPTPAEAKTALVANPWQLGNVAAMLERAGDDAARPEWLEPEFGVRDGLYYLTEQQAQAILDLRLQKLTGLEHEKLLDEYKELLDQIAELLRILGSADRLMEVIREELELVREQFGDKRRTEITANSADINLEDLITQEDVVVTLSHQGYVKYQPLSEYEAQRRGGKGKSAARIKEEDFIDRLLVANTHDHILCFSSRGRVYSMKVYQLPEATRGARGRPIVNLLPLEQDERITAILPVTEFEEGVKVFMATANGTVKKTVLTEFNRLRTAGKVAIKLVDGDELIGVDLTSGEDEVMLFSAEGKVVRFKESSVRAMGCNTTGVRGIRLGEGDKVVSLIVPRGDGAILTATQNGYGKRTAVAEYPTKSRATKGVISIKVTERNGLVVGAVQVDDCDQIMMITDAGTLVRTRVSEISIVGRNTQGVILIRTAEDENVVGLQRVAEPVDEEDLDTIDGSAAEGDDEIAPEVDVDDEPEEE
Staphylococcus aureus DNA gyrase, sequence (P20831 whole entry): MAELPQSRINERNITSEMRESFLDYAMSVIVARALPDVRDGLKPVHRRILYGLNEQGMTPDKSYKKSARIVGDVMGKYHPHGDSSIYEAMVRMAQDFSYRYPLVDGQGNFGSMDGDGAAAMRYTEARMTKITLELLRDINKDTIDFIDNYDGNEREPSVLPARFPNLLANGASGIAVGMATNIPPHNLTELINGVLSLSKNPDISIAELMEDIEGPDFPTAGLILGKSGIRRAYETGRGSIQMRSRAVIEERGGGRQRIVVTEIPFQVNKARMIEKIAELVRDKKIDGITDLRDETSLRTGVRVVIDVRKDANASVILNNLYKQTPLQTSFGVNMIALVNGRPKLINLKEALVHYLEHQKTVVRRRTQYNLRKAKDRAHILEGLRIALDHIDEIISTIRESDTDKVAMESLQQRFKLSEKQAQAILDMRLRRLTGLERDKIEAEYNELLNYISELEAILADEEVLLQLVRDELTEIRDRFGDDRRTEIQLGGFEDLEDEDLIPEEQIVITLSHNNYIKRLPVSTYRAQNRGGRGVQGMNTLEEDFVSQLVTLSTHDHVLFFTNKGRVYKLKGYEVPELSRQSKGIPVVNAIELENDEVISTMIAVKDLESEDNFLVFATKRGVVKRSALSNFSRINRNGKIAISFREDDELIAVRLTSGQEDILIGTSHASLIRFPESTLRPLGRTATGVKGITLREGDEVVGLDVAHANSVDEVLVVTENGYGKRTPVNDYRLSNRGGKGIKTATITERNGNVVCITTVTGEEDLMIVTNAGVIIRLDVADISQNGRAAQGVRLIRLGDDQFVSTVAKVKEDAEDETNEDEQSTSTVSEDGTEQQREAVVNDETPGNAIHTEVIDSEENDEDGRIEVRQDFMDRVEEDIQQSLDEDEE
Staphylococcus aureus DNA gyrase, sequence (P0A0K8 whole entry): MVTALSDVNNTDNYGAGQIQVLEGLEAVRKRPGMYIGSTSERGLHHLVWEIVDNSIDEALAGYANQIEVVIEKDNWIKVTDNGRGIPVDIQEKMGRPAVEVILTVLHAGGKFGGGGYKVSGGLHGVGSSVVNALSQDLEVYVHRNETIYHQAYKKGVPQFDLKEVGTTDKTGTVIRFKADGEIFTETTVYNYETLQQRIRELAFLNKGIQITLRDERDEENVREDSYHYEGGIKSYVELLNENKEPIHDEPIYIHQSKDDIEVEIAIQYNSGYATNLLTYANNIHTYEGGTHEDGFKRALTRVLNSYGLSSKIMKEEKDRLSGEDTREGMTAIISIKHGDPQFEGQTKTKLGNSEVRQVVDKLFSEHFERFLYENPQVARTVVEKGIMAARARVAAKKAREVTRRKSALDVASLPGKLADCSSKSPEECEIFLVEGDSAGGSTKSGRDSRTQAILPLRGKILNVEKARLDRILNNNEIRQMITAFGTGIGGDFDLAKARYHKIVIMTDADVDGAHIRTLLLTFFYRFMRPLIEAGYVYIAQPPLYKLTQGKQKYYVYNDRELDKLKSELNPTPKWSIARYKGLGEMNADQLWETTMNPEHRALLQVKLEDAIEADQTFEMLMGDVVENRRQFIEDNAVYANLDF

For the compound `COc1ccc2nccc(CCN3CCC(NCc4ccc(N(C)C)cc4)CC3)c2n1` [Compound C4, N-(4-(dimethylamino)benzyl)-1-(2-(6-methoxy-1,5-naphthyridin-4-yl)ethyl)piperidin-4-amine], the IC50 (commonly the midpoint of a concentration-inhibition curve) in [1] turned out to be 11.9 µM; in [15], 0.067 µM. For the same compound, the MIC – broadly, the least concentration at which growth counts as inhibited – in series [2] turned out to be 0.025 µg/mL (≈ 0.0596 µM); in series [3], 0.015 µg/mL (≈ 0.0358 µM); in series [4], 0.125 µg/mL (≈ 0.298 µM); in [5] it was 0.25 µg/mL (≈ 0.596 µM); in [6], 0.25 µg/mL (≈ 0.596 µM); in [7] it was 0.5 µg/mL (≈ 1.19 µM). Moreover, the MIC in series [8] was 0.125 µg/mL (≈ 0.298 µM); in [9], 0.25 µg/mL (≈ 0.596 µM); in series [10] it was 1 µg/mL (≈ 2.38 µM); in [11], over 128 µg/mL; in series [12], 4 µg/mL (≈ 9.53 µM). Besides, the “mean percentage of metabolic activity of treated cells, HUVEC 1 μM” value (“mean percentage … HUVEC 1 μM” for short) in series [13] came out at 105.9 ± 0.9%. Also, the “mean percentage of metabolic activity of treated cells, HUVEC 50 μM” value (“mean percentage … HUVEC 50 μM” for short) in series [13] worked out at 0.1 ± 0.6%. Besides, the “mean percentage of metabolic activity of treated cells, HepG2 1 μM” value (from here on “mean percentage … HepG2 1 μM”) in [14] was 102.5 ± 2.3%. Also, in [14], the “mean percentage of metabolic activity of treated cells, HepG2 50 μM” value (“mean percentage … HepG2 50 μM” for short) was 0.8 ± 1.0%.

As to `COc1ccc2nccc(CCN3CCC(NCc4ccc(Cl)cc4)CC3)c2n1` [Compound C6, N-(4-chlorobenzyl)-1-(2-(6-methoxy-1,5-naphthyridin-4-yl)ethyl)piperidin-4-amine], the MIC in series [16] was 0.125 µg/mL (≈ 0.304 µM); in series [3], at most 0.0078 µg/mL; in series [4], 0.25 µg/mL (≈ 0.608 µM); in [5], 0.25 µg/mL (≈ 0.608 µM); in series [6], 0.25 µg/mL (≈ 0.608 µM); in series [7], 0.5 µg/mL (≈ 1.22 µM). In addition, the MIC in series [8] is 0.25 µg/mL (≈ 0.608 µM); in series [9] it was 0.25 µg/mL (≈ 0.608 µM); in series [10] it was 1 µg/mL (≈ 2.43 µM); in series [11], over 128 µg/mL; in series [12], 2 µg/mL (≈ 4.87 µM). Besides, the “mean percentage … HUVEC 1 μM” value in [13] was 86.1 ± 17.1%. In [13], the “mean percentage … HUVEC 50 μM” value is listed as −0.6 ± 0.4%. In addition, in [14], the “mean percentage … HepG2 1 μM” value was 84.5 ± 11.1%. Further, the “mean percentage … HepG2 50 μM” value in [14] stood at 0.9 ± 0.1%.

`C=CCn1cc(CNC2CCN(CCc3ccnc4ccc(OC)nc34)CC2)cn1` [Compound C11, N-((1-allyl-^1H-pyrazol-4-yl)methyl)-1-(2-(6-methoxy-1,5-naphthyridin-4-yl)ethyl)piperidin-4-amine]: the IC50 in [1] was determined as 16.7 µM; in [15], 1.1 µM. Also, the MIC is 2 µg/mL (≈ 4.92 µM) in series [2]; 0.125 µg/mL (≈ 0.307 µM) in series [3]; under 1 µg/mL in series [4]; 2 µg/mL (≈ 4.92 µM) in series [5]; 2 µg/mL (≈ 4.92 µM) in series [6]; 4 µg/mL (≈ 9.84 µM) in series [7]. Further, the MIC in [8] was 1 µg/mL (≈ 2.46 µM); in series [9] it was 2 µg/mL (≈ 4.92 µM); in series [10] it was 8 µg/mL (≈ 19.7 µM); in [11], over 128 µg/mL; in series [12], 8 µg/mL (≈ 19.7 µM). The “mean percentage … HUVEC 1 μM” value in [13] came out at 88.6 ± 21.2%. Besides, the “mean percentage … HUVEC 50 μM” value in series [13] was determined as 84.2 ± 19.5%. Besides, the “mean percentage … HepG2 1 μM” value in series [14] came to 108.5 ± 6.3%. Further, the “mean percentage … HepG2 50 μM” value in [14] is 77.0 ± 2.4%.

For the origin of these results see US20250197394A1, “ANTIBACTERIALS BASED ON MONOCYCLIC FRAGMENTS COUPLED TO AMINOPIPERIDINE NAPHTHYRIDINE SCAFFOLD” (UNIVERZA V LJUBLJANI, priority 2019, published 2025).
